In a melting point compilation (Tetko et al.; mined from patent text by program, amines drawn as free bases though some values may be those of a salt):

SMILES	melting point [°C]
COc1cc2c(=O)n(CCN3CCCC3)c3c4cc5c(cc4nnc3c2cc1OC)OCO5	229
NC(=O)c1cc(F)c(-n2ncc(Cl)c(Cl)c2=O)cc1F	> 260
CCc1cccc(CC)c1NC(=O)C1c2ccccc2COc2ccc(C)cc21 (stereo not drawn)	202 to 203
COc1ccc(C2=NN(C3CCN(c4ncnc5sccc45)CC3)C(=O)[C@@H]3CC=CC[C@H]23)cc1OC	219 to 220
CN(C)c1ncc2c(=O)n(Cc3ccccn3)sc2n1	145 to 146
CC(=O)N(C)C(=N[N+](=O)[O-])N(Cc1cnc(Cl)s1)C(C)=O	72 to 74
O=C1N[C@H](Cc2ccc(C(F)(F)F)o2)[C@H](c2ccc(F)cc2)O1 (racemic)	177 to 179
COc1ccc(-c2nc(C)c(C(=O)O)s2)cc1	129 to 131
O=C(O)c1ccc(C#Cc2cc(C#Cc3ccc(C(=O)O)cc3)cc(C#Cc3ccc(C(=O)O)cc3)c2)cc1	218
CNC(=O)c1ccc(C(=O)Nc2cccc(C3=NC(C)(C)Cc4cc(OC)c5c(c43)CC(C)(C)O5)c2)cc1	310 to 312
CNC(=O)N(CCN)c1nc(-c2ccc(F)cc2C)c2ccc(=O)n(-c3c(F)cccc3F)c2n1	124 to 133
Cc1c(N(C)C)cc(C(=O)CS(C)(=O)=O)cc1N(C)C	161 to 163
CCCCN1CCC(C(=O)O)(S(=O)(=O)c2ccc(OC)cc2)CC1	206
CNCc1ccc2nc(NC(=O)c3ccc(C(C)(C)C)cc3)cn2c1	204 to 205
CCC1c2cccn2-c2cccc(C)c2N1S(=O)(=O)c1ccc(O)cc1 (stereo not drawn)	165 to 167
COc1ccc(-c2cnn3c(N)c(-c4cccc(Cl)c4)c(C)nc23)cc1	171 to 172
CCOc1ccc(C=CC(=O)c2c(OC)cc(OC)cc2OP(=O)(O)O)cc1	63 to 64
CN(C)c1cc2nc(C(=O)O)c(=O)[nH]c2cc1[N+](=O)[O-]	194 to 196
Cc1cc(CCCc2ccc(CO)c(CO)c2)ccc1O	92
O=C=Nc1ccc(F)cc1	93 to 94
CC(C)NCC(O)COc1ccc(-c2nc(C(F)(F)F)c[nH]2)cc1 (stereo not drawn)	173 to 174
O=C1NCC(c2ccccc2)CCC1Br (stereo not drawn)	218 to 220
CC(=O)Oc1c(C)cc(C(=O)Nc2c(CO)nc3c(C)cc(C)cc3c2-c2ccccc2Cl)cc1C	134 to 136
CC(/C=C/c1sccc1-c1ccc2c(c1)C(C)(C)CCC2(C)C)=C\C(=O)O	188 to 189
Cc1cc(N)ccc1-c1ccc(-c2ccc(N)cc2C)s1	86 to 88

SMILES	melting point [°C]
Fc1ccc(/C=C/c2nc(COc3cccc(CCCn4ccnn4)c3)co2)c(F)c1	89 to 90
Clc1ccc(NC2=NCCN2)c(Cl)c1	138 to 139
O=C(O)c1ccc(N2CCCC2)c(NC(=O)C(CS)Cc2ccccc2)c1 (stereo not drawn)	229 to 234
CN(C)C=C1CCN(C(=O)c2ccc([N+](=O)[O-])cc2)c2ccccc2C1=O	180 to 183
O=[N+]([O-])c1cn2c(n1)O[C@@H](COc1ccc3nc(N4CCN(Cc5ccc(OC(F)(F)F)cc5)CC4)sc3c1)CC2	157 to 159
OCc1ccc(C2=NOC(c3cc(Cl)cc(Cl)c3)(C(F)(F)F)C2)cc1Cl (stereo not drawn)	32 to 35
CCCCCCC(C)(C)c1cc(O)c2c(c1)OC(C)(C)[C@@H]1CCC(=O)C[C@H]21 (relative stereo)	151 to 153
C[C@@H](NC(=O)OC(C)(C)C)c1nc2c(C(F)(F)F)cccc2c(O)c1C(=O)Nc1nccs1	265
O=C(N1CCC(n2c(=O)[nH]c3ncccc32)CC1)n1ccnc1	226
CC(=O)Oc1cc2c(c3ccccc13)Nc1ccc(C)cc1S2	193 to 195
CN1CCC=C(c2nsnc2SCCCC(=O)O)C1	99 to 101
CCc1cc(-c2nc3ccccc3s2)ccc1N	118 to 120
CNC(=S)Nc1cc(OC)c(-c2ccc(C[C@H](NC(=O)c3c(Cl)cccc3Cl)C(=O)O)cc2)c(OC)c1	197 to 198
O=C(O)CCc1cc2c(c(Br)c1Br)OCC2	224 to 226
O=c1[nH][nH]c(=O)n1CCCCl	168 to 170
C1=C(c2ccncc2)CCC2(C1)OCCO2	67 to 70
O=C(Nc1cccc2[nH]ccc12)c1ccccc1OCCCCl	140
CCN([C@H]1CC[C@H](c2ccc3[nH]c(=O)oc3c2)CC1)[C@H](C)CCc1ccccc1	139 to 158
CC(=N)Nc1ccc2nc(-c3ccccc3)ncc2c1	162 to 164
CCCc1nn(C)c2c(=O)n(CCOc3ccc(SC(C)(C)C(=O)O)cc3)c(CC)nc12	104 to 106
Cc1nc(-n2ccc(O)cc2=O)sc1C(=O)NCc1ccccc1	240 to 243
N#Cc1cc([N+](=O)[O-])c(N)cc1F	197 to 199
Brc1ccc(OCc2ccc3ccccc3c2)nc1	83 to 85
Cc1ccncc1Cn1nnnc1-c1cc(Cl)ccc1Cl	169 to 171
CC(=O)N(C)CC(=O)c1ccc2c(c1)OCO2	99 to 101

SMILES	melting point [°C]
CC#Cc1ccc(NC(=O)c2cccnc2NCc2ccc(OC)nc2)cc1C(F)(F)F	109 to 111
CN(Cc1ccc(C(=O)Cn2cnc3cc(-c4ccc(Cl)cc4)sc3c2=O)cc1)C(=O)C(F)(F)F	235 to 238
O=C(O)[C@@H]1CC2(CN1C(=O)CP(=O)(O)CCCCc1ccccc1)SCCS2	106 to 107
Cc1c(-c2ccc(C(=O)c3ccc(-c4sc5ccccc5c4C)nc3)cn2)sc2ccccc12	120 to 121
CCCc1nc(CO)c(C(=O)OCC)n1Cc1ccc(-c2ccccc2-c2nnnn2C(c2ccccc2)(c2ccccc2)c2ccccc2)cc1	135 to 138
CNc1nc2ccccc2c(-c2ccccc2)c1C(=O)N(C)Cc1cc(C(F)(F)F)cc(C(F)(F)F)c1	173 to 174
O=c1cc2c(nn1-c1ccccc1)-c1cc(Cl)ccc1CC2	184 to 186
COCc1ccc([C@H]2CC[C@H]([C@H]3CC[C@H](C=O)CC3)CC2)cc1F	52 to 54
CCC(C)N(C)C(=O)c1cc(-c2ccccc2)c2ccsc2c1 (stereo not drawn)	84
CCOC(=O)c1cn(NCC=O)c2c(F)c(F)c(F)cc2c1=O	185
COc1cc2c(c3c1OC(C)(C)C3)C(c1cccc(N3C(=O)c4ccccc4C3=O)c1)=NC(C)(C)C2	162 to 168
Cn1nc(-c2ncc(Cl)cc2F)cc1Br	110 to 111
COC1CCCn2c1nc(C)c(CCN1CCC(c3noc4cc(F)ccc34)CC1)c2=O (stereo not drawn)	131
O=[N+]([O-])c1ccc(Oc2ccc(Oc3ccc([N+](=O)[O-])cc3)c(P(=O)(c3ccccc3)c3ccccc3)c2)cc1	239 to 242
Oc1ccccc1Oc1ccc(Cl)cn1	97 to 100
O=C1COc2ccc(C3=C(c4ccc(Cl)cc4Cl)C(=O)OC3)cc2N1	233 to 234
Cc1nccc2c3ccc(O)cc3n(Cc3ccccc3)c12	234
CCCC1(C(=O)NCCCCCO)c2ccccc2-c2ccccc21	48 to 51
COC1=CC2=CCC3C(CCC4(C)C(C5=NC(OCc6ccccc6)OC5)=CCC34)C2(C)CC1 (stereo not drawn)	115 to 125
CCOC(=O)c1csc(Nc2ccccc2)n1	140 to 142
CC(C)(C)OC(=O)NCCNC(=O)c1csc(Cl)n1	127 to 129
COc1ccc(Cn2cnc(=O)c3[nH]c(C(C)C)nc32)cc1OC1CCCC1	243 to 244
O=C(c1ncccc1OC1SCC(O)C(O)C1O)N1CCCCC1 (stereo not drawn)	81 to 92
CC(C)N1CCN(c2cccc(N)c2)C(=O)C1	114 to 115
Cn1c(-c2ccc(-n3cnc4ccccc43)cc2)cnc1[C@H](Cc1ccccn1)N(C=O)c1cc2ccccc2o1	152 to 155

SMILES	melting point [°C]
COC(=O)CCc1cc(C)cc(NC(C)=O)n1	82
COc1ccc(S(=O)(=O)N2c3ccccc3CC2C(=O)NO)cc1 (stereo not drawn)	142
C[C@]1(CN2CCN(C(=O)OCc3ccc(C(F)(F)F)cc3)CC2)Cn2cc([N+](=O)[O-])nc2O1	140 to 142
CC(C)C(=O)Nc1ccc(OCc2ccccc2)c(Br)c1N(C)C	197 to 198
COc1cc(CNC(=O)c2ccc3n2Cc2ccccc2N(C(=O)c2ccc(-c4ccccc4C)c(C)c2)C3)cc(OC)c1	183 to 184
CC1C(=O)C2CCCCC2N2CCc3ccccc3C12 (stereo not drawn)	144 to 148
O=C(c1ccc(Br)s1)N(Cc1cccc(O)c1)C1CC1	128
CC(=O)OCCSCCOc1ccc(CCC(=O)O)cc1	48 to 49
Cc1cc(C)c(-n2nnc3c(-c4ccc(Cl)cc4Cl)nc(C)nc32)c(C)c1	167 to 168
O=C(O)c1nn(Cc2cccc(O)c2)c2c1CCc1cc(OCc3cncnc3)ccc1-2	251 to 256
COc1cc2c(Nc3cccc(C)c3)ncnc2cc1OC(C)C	218 to 221
CCOC(=O)c1[nH]c2cc(Cl)c(Cl)cc2c1-c1ccccc1	201 to 202
COc1ccc2[nH]c(S(=O)Cc3cc(N(C)C)ncn3)nc2c1 (stereo not drawn)	104 to 106
O=[N+]([O-])c1cc2oc(-c3ccccc3)nc2cc1N1CCOCC1	134 to 135
N=C(NO)c1ccc(-c2ccc(-c3nc4cc(C(=N)NO)ccc4[nH]3)cc2)nc1	305 to 308
CCCn1c(=O)c2c(N3CCN(C)CC3)cc(Cl)cc2n(Cc2ccccc2)c1=O	120 to 121
CCOC(=O)C(=Cc1cccc2ccccc12)c1csc(N)n1	155 to 157
CCCn1c(=O)nc(SC)c2c1ncn2COCc1ccccc1	167 to 168
CC(=O)Nc1cccc(OCc2ccccc2)c1C	142 to 143
CN=C(NC#N)NCCSCc1ncccc1O	146 to 148
CC(Cc1cccnc1)n1nnc2cc3c(=O)n(C4CC4)nnc3cc2c1=O (stereo not drawn)	160 to 161
CN(C)S(=O)(=O)c1cc2c(c(C(=O)O)c1)OCCO2	220 to 221
CSc1ccc(C(=O)Cc2cccc(F)c2)cc1	94.5 to 95.5
